Data published in US12522602B2, “Derivatives having 2,3-dihydro-1H-indene or 2,3-dihydrobenzofuran moiety or pharmaceutically acceptable salt thereof and pharmaceutical compositions comprising the same” (YUHAN CORPORATION, priority 2019, dated 2026).

Test system: GM1 production in Jurkat cells
Assay: cells
Format: cell-based
Conditions: Homo sapiens, Jurkat, 72 h

Row | Compound | IC50
1 | Cc1cc(-c2ccc3c(c2)CC(C)(C)C3NC(=O)O[C@@H]2CN3CCC2CC3)co1 (stereo partly drawn) [Example 235, (S)-quinuclidin-3-yl (2,2-dimethyl-5-(5-methylfuran-3-yl)-2,3-dihydro-1H-inden-1-yl)carbamate] | 6.5 nM
2 | COc1c(F)cccc1-c1ccc2c(c1)CC(C)(C)C2NC(=O)O[C@@H]1CN2CCC1CC2 (stereo partly drawn) [Example 236, (S)-quinuclidin-3-yl (5-(3-fluoro-2-methoxyphenyl)-2,2-dimethyl-2,3-dihydro-1H-inden-1-yl)carbamate] | 32.4 nM
3 | CC1(C)Cc2cc(-c3cccc(F)c3Cl)ccc2C1NC(=O)O[C@@H]1CN2CCC1CC2 (stereo partly drawn) [Example 237, (S)-quinuclidin-3-yl (5-(2-chloro-3-fluorophenyl)-2,2-dimethyl-2,3-dihydro-1H-inden-1-yl)carbamate] | 29.2 nM
4 | CC1(C)Cc2cc(-c3csc4ccccc34)ccc2C1NC(=O)O[C@@H]1CN2CCC1CC2 (stereo partly drawn) [Example 238, (S)-quinuclidin-3-yl (5-(benzo[b]thiophen-3-yl)-2,2-dimethyl-2,3-dihydro-1H-inden-1-yl)carbamate] | 13.2 nM
5 | CCCOc1cc(F)ccc1-c1ccc2c(c1)CC(C)(C)C2NC(=O)O[C@@H]1CN2CCC1CC2 (stereo partly drawn) [Example 239, (S)-quinuclidin-3-yl (5-(4-fluoro-2-propoxyphenyl)-2,2-dimethyl-2,3-dihydro-1H-inden-1-yl)carbamate] | 48.9 nM
6 | Cc1cc(-c2ccc3c(c2)CC(C)(C)C3NC(=O)O[C@@H]2CN3CCC2CC3)cc(C(C)(C)C)c1 (stereo partly drawn) [Example 240, (S)-quinuclidin-3-yl (5-(3-(tert-butyl)-5-methylphenyl)-2,2-dimethyl-2,3-dihydro-1H-inden-1-yl)carbamate] | 51.3 nM
7 | CCOc1ccc(Cl)c(-c2ccc3c(c2)CC(C)(C)C3NC(=O)O[C@@H]2CN3CCC2CC3)c1 (stereo partly drawn) [Example 241, (S)-quinuclidin-3-yl (5-(2-chloro-5-ethoxyphenyl)-2,2-dimethyl-2,3-dihydro-1H-inden-1-yl)carbamate] | 51.3 nM
8 | CC1(C)Cc2cc(-c3ccc(Cl)c(F)c3)ccc2C1NC(=O)O[C@@H]1CN2CCC1CC2 (stereo partly drawn) [Example 242, (S)-quinuclidin-3-yl (5-(4-chloro-3-fluorophenyl)-2,2-dimethyl-2,3-dihydro-1H-inden-1-yl)carbamate] | 64.4 nM
9 | Cc1cccc(-c2ccc3c(c2)CC(C)(C)C3NC(=O)O[C@@H]2CN3CCC2CC3)c1F (stereo partly drawn) [Example 243, (S)-quinuclidin-3-yl (5-(2-fluoro-3-methylphenyl)-2,2-dimethyl-2,3-dihydro-1H-inden-1-yl)carbamate] | 21.4 nM
10 | COc1ccc(C#N)cc1-c1ccc2c(c1)CC(C)(C)C2NC(=O)O[C@@H]1CN2CCC1CC2 (stereo partly drawn) [Example 244, (S)-quinuclidin-3-yl (5-(5-cyano-2-methoxyphenyl)-2,2-dimethyl-2,3-dihydro-1H-inden-1-yl)carbamate] | 38 nM
11 | CCOc1cc(-c2ccc3c(c2)CC(C)(C)C3NC(=O)O[C@@H]2CN3CCC2CC3)cc(C(F)(F)F)c1 (stereo partly drawn) [Example 245, (S)-quinuclidin-3-yl (5-(3-ethoxy-5-(trifluoromethyl)phenyl)-2,2-dimethyl-2,3-dihydro-1H-inden-1-yl)carbamate] | 23 nM
12 | CC1(C)Cc2cc(-c3cc(F)cc(C(F)(F)F)c3)ccc2C1NC(=O)O[C@@H]1CN2CCC1CC2 (stereo partly drawn) [Example 246, (S)-quinuclidin-3-yl (5-(3-fluoro-5-(trifluoromethyl)phenyl)-2,2-dimethyl-2,3-dihydro-1H-inden-1-yl)carbamate] | 14.7 nM
13 | Cc1cc(-c2ccc3c(c2)CC(C)(C)C3NC(=O)O[C@@H]2CN3CCC2CC3)ccc1OC(F)(F)F (stereo partly drawn) [Example 247, (S)-quinuclidin-3-yl (2,2-dimethyl-5-(3-methyl-4-(trifluoromethoxy)phenyl)-2,3-dihydro-1H-inden-1-yl)carbamate] | 41 nM
14 | CSc1cc(-c2ccc3c(c2)CC(C)(C)C3NC(=O)O[C@@H]2CN3CCC2CC3)cc(C(F)(F)F)c1 (stereo partly drawn) [Example 248, (S)-quinuclidin-3-yl (2,2-dimethyl-5-(3-(methylthio)-5-(trifluoromethyl)phenyl)-2,3-dihydro-1H-inden-1-yl)carbamate] | 14.9 nM
15 | CC1(C)Cc2cc(-c3ccc(OC(F)(F)F)c(F)c3)ccc2C1NC(=O)O[C@@H]1CN2CCC1CC2 (stereo partly drawn) [Example 249, (S)-quinuclidin-3-yl (5-(3-fluoro-4-(trifluoromethoxy)phenyl)-2,2-dimethyl-2,3-dihydro-1H-inden-1-yl)carbamate] | 37 nM
16 | CCOc1cc(C(F)(F)F)ccc1-c1ccc2c(c1)CC(C)(C)C2NC(=O)O[C@@H]1CN2CCC1CC2 (stereo partly drawn) [Example 250, (S)-quinuclidin-3-yl (5-(2-ethoxy-4-(trifluoromethyl)phenyl)-2,2-dimethyl-2,3-dihydro-1H-inden-1-yl)carbamate] | 33 nM
17 | COc1ccc(C(F)(F)F)cc1-c1ccc2c(c1)CC(C)(C)C2NC(=O)O[C@@H]1CN2CCC1CC2 (stereo partly drawn) [Example 251, (S)-quinuclidin-3-yl (5-(2-methoxy-5-(trifluoromethyl)phenyl)-2,2-dimethyl-2,3-dihydro-1H-inden-1-yl)carbamate] | 7.2 nM
18 | CC1(C)Cc2cc(-c3ccc(C(F)(F)F)cc3C(F)(F)F)ccc2C1NC(=O)O[C@@H]1CN2CCC1CC2 (stereo partly drawn) [Example 252, (S)-quinuclidin-3-yl (5-(2,4-bis(trifluoromethyl)phenyl)-2,2-dimethyl-2,3-dihydro-1H-inden-1-yl)carbamate] | 43.9 nM

Row | Compound | IC50
19 | Cc1c(Cl)cccc1-c1ccc2c(c1)CC(C)(C)C2NC(=O)O[C@@H]1CN2CCC1CC2 (stereo partly drawn) [Example 253, (S)-quinuclidin-3-yl (5-(3-chloro-2-methylphenyl)-2,2-dimethyl-2,3-dihydro-1H-inden-1-yl)carbamate] | 37.2 nM
20 | COc1cc(-c2ccc3c(c2)CC(C)(C)C3NC(=O)O[C@@H]2CN3CCC2CC3)ccc1C (stereo partly drawn) [Example 254, (S)-quinuclidin-3-yl (5-(3-methoxy-4-methylphenyl)-2,2-dimethyl-2,3-dihydro-1H-inden-1-yl)carbamate] | 45.2 nM
21 | Cc1cc(-c2ccc3c(c2)CC(C)(C)C3NC(=O)O[C@@H]2CN3CCC2CC3)ccc1F (stereo partly drawn) [Example 255, (S)-quinuclidin-3-yl (5-(4-fluoro-3-methylphenyl)-2,2-dimethyl-2,3-dihydro-1H-inden-1-yl)carbamate] | 35.8 nM
22 | CCOc1ccc(F)cc1-c1ccc2c(c1)CC(C)(C)C2NC(=O)O[C@@H]1CN2CCC1CC2 (stereo partly drawn) [Example 256, (S)-quinuclidin-3-yl (5-(2-ethoxy-5-fluorophenyl)-2,2-dimethyl-2,3-dihydro-1H-inden-1-yl)carbamate] | 24.6 nM
23 | CCCOc1cc(F)cc(-c2ccc3c(c2)CC(C)(C)C3NC(=O)O[C@@H]2CN3CCC2CC3)c1 (stereo partly drawn) [Example 257, (S)-quinuclidin-3-yl (5-(3-fluoro-5-propoxyphenyl)-2,2-dimethyl-2,3-dihydro-1H-inden-1-yl)carbamate] | 27.4 nM
24 | CC1(C)Cc2cc(-c3cc(C(F)(F)F)cc(C(F)(F)F)c3)ccc2C1NC(=O)O[C@@H]1CN2CCC1CC2 (stereo partly drawn) [Example 258, (S)-quinuclidin-3-yl (5-(3,5-bis(trifluoromethyl)phenyl)-2,2-dimethyl-2,3-dihydro-1H-inden-1-yl)carbamate] | 17.4 nM
25 | Cc1ccc(-c2ccc3c(c2)CC(C)(C)C3NC(=O)O[C@@H]2CN3CCC2CC3)cc1Cl (stereo partly drawn) [Example 259, (S)-quinuclidin-3-yl (5-(3-chloro-4-methylphenyl)-2,2-dimethyl-2,3-dihydro-1H-inden-1-yl)carbamate] | 10.2 nM
26 | Cc1ccc(C)c(-c2ccc3c(c2)CC(C)(C)C3NC(=O)O[C@@H]2CN3CCC2CC3)c1 (stereo partly drawn) [Example 260, (S)-quinuclidin-3-yl (5-(2,5-dimethylphenyl)-2,2-dimethyl-2,3-dihydro-1H-inden-1-yl)carbamate] | 14.4 nM
27 | CC1(C)Cc2cc(-c3ccc(F)c(Cl)c3)ccc2C1NC(=O)O[C@@H]1CN2CCC1CC2 (stereo partly drawn) [Example 261, (S)-quinuclidin-3-yl (5-(3-chloro-4-fluorophenyl)-2,2-dimethyl-2,3-dihydro-1H-inden-1-yl)carbamate] | 51.5 nM
28 | CCOc1ccc(-c2ccc3c(c2)CC(C)(C)C3NC(=O)O[C@@H]2CN3CCC2CC3)cn1 (stereo partly drawn) [Example 262, (S)-quinuclidin-3-yl (5-(6-ethoxypyridin-3-yl)-2,2-dimethyl-2,3-dihydro-1H-inden-1-yl)carbamate] | 34.4 nM
29 | CCOc1cc(-c2ccc3c(c2)CC(C)(C)C3NC(=O)O[C@@H]2CN3CCC2CC3)ccn1 (stereo partly drawn) [Example 263, (S)-quinuclidin-3-yl (5-(2-ethoxypyridin-4-yl)-2,2-dimethyl-2,3-dihydro-1H-inden-1-yl)carbamate] | 34.9 nM
30 | CC(C)Oc1cc(-c2ccc3c(c2)CC(C)(C)C3NC(=O)O[C@@H]2CN3CCC2CC3)ccn1 (stereo partly drawn) [Example 264, (S)-quinuclidin-3-yl (5-(2-isopropoxypyridin-4-yl)-2,2-dimethyl-2,3-dihydro-1H-inden-1-yl)carbamate] | 14.4 nM
31 | CCCOc1ccc(-c2ccc3c(c2)CC(C)(C)C3NC(=O)O[C@@H]2CN3CCC2CC3)cn1 (stereo partly drawn) [Example 265, (S)-quinuclidin-3-yl (2,2-dimethyl-5-(6-propoxypyridin-3-yl)-2,3-dihydro-1H-inden-1-yl)carbamate] | 6.7 nM
32 | CCCCOc1ccc(-c2ccc3c(c2)CC(C)(C)C3NC(=O)O[C@@H]2CN3CCC2CC3)cn1 (stereo partly drawn) [Example 266, (S)-quinuclidin-3-yl (5-(6-butoxypyridin-3-yl)-2,2-dimethyl-2,3-dihydro-1H-inden-1-yl)carbamate] | 4.7 nM
33 | COCCOc1ccc(-c2ccc3c(c2)CC(C)(C)C3NC(=O)O[C@@H]2CN3CCC2CC3)cn1 (stereo partly drawn) [Example 267, (S)-quinuclidin-3-yl (5-(6-(2-methoxyethoxy)pyridin-3-yl)-2,2-dimethyl-2,3-dihydro-1H-inden-1-yl)carbamate] | 83.1 nM
34 | CC(C)COc1ccc(-c2ccc3c(c2)CC(C)(C)C3NC(=O)O[C@@H]2CN3CCC2CC3)cn1 (stereo partly drawn) [Example 268, (S)-quinuclidin-3-yl (5-(6-isobutoxypyridin-3-yl)-2,2-dimethyl-2,3-dihydro-1H-inden-1-yl)carbamate] | 2.5 nM
35 | CC(C)Cc1cccc(-c2ccc3c(c2)CC(C)(C)C3NC(=O)O[C@@H]2CN3CCC2CC3)c1 (stereo partly drawn) [Example 269, (S)-quinuclidin-3-yl (5-(3-isobutylphenyl)-2,2-dimethyl-2,3-dihydro-1H-inden-1-yl)carbamate] | 6.5 nM
